Laboratory results published in ChEMBL document CHEMBL1201862, “PubChem BioAssay data set” (2004).
Activity calls are given as the source filed them.

What was measured:
[1] = Fluorescence-based cell-based high throughput dose response assay for inhibitors of the interaction of nucleotide-binding oligomerization domain containing 2 (NOD2) and the receptor-interacting serine-threonine kinase 2 (RIPK2).; format: functional; settings: Homo sapiens
[2] = NIH-3T3 fibroblast cytotoxicity, dose response, cytotoxicity control, cell-based, fluorescence, Alamar Blue, secondary assay (AID 2327); format: functional;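 also: NIH-3T3 mouse fibroblasts cultured with fluconazole at 8 µg/mL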
[3] = viability of PTEN-deleted HCT116 cells – cell-based, HCT116 PTEN knockout, dose response (AID 1047); format: functional;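 also: HCT116 colon tumor cells with PTEN knocked out; cells exposed to compound for 60 hours before readout; potency for loss of cell viability measured by luminescence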
[4] = test system: BJ; test: BJ-TERT fibroblast viability loss – cell-based, RAS-independent, luminescence, dose response (AID 1933); format: functional; settings: Homo sapiens
[5] = test system: BJ; test: BJ-TERT-LT-ST fibroblast viability loss – cell-based, RAS-independent, luminescence, dose response (AID 1935); format: functional; settings: Homo sapiens;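 also: BJ fibroblasts immortalized with TERT plus LT and ST oncogenes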
[6] = biological target: DNA damage-inducible transcript 3 protein (Mus musculus, UniProt P35639); format: functional, Cricetulus griseus
Chain of DNA damage-inducible transcript 3 protein (P35639 whole entry): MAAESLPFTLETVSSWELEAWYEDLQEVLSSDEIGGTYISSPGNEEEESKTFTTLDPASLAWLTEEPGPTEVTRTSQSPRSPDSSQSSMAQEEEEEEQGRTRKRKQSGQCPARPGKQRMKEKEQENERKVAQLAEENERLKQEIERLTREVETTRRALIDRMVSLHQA

[7] = biological target: Fatty acid synthase (Homo sapiens, UniProt P49327); test: inhibition of human FAS-TE enzyme activity – biochemical, kinetic fluorescence intensity, dose response (AID 624326); format: functional;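 also: rate of fluorescence rise from hydrolysis of a fluorogenic O-methyl fluorescein ester substrate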
Chain of Fatty acid synthase (P49327 whole entry): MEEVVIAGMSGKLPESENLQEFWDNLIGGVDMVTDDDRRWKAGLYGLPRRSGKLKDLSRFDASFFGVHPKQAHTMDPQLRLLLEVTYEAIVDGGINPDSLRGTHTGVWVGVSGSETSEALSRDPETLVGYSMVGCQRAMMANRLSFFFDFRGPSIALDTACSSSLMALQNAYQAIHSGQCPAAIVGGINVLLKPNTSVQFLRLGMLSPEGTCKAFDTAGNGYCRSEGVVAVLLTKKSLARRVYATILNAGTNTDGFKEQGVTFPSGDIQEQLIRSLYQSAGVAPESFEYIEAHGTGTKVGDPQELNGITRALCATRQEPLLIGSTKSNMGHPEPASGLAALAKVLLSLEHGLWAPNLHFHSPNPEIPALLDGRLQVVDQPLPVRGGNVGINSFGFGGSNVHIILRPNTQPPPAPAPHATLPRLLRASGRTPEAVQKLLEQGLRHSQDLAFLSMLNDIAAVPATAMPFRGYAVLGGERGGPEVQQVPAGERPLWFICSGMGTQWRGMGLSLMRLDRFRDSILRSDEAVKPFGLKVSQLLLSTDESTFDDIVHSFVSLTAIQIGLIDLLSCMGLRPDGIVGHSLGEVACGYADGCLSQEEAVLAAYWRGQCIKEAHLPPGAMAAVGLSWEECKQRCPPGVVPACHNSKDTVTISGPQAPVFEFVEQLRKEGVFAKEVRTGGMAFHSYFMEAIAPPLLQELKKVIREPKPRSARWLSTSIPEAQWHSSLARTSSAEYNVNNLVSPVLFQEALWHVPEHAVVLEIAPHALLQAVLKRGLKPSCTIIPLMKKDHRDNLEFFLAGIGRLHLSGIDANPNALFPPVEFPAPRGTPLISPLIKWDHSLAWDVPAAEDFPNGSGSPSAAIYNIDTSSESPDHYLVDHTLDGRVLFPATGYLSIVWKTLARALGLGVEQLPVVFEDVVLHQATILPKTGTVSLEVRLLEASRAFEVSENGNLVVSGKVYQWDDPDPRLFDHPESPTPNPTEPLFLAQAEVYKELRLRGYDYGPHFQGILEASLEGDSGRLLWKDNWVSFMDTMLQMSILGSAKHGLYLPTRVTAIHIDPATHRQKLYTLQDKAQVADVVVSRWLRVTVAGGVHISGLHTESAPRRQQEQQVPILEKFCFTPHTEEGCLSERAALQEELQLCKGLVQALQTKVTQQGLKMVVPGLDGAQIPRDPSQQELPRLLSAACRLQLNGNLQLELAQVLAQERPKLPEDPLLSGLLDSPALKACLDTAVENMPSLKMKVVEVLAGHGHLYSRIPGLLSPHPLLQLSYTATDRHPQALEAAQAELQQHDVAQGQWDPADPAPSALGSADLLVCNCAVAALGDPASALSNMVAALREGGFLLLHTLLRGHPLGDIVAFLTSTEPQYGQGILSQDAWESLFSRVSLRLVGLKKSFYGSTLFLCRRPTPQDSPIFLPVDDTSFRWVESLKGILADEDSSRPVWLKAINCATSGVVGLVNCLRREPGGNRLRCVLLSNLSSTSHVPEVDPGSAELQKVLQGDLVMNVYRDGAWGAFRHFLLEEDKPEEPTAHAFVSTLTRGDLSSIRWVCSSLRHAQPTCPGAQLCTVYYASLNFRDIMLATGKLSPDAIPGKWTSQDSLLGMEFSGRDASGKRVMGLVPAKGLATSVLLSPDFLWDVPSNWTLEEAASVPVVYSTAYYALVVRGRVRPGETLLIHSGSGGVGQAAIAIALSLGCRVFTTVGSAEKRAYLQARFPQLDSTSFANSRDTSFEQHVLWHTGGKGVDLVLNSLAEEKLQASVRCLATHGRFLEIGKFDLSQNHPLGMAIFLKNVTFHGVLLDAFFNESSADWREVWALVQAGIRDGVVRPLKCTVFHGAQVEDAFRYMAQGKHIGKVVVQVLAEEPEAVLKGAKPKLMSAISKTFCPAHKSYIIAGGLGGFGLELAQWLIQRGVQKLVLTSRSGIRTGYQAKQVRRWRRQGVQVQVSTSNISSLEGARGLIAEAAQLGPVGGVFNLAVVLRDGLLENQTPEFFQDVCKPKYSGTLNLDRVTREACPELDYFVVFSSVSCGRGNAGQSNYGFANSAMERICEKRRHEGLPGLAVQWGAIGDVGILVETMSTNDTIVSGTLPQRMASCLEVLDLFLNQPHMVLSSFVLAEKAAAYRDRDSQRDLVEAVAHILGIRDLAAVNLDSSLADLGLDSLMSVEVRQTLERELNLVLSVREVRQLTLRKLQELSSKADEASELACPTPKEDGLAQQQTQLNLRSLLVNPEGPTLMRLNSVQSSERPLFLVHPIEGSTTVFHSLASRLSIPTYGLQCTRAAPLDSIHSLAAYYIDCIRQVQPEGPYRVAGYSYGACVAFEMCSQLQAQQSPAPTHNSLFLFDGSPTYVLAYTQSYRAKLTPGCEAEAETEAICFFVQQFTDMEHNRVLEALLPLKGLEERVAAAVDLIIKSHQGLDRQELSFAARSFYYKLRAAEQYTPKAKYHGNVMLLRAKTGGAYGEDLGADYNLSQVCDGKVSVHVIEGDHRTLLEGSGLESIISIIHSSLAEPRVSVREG

[8] = biological target: Large T antigen (Simian virus 40, UniProt P03070); format: functional, Betapolyomavirus macacae;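 also: Confirmatory-stage PubChem screen for compounds that inhibit SV40 T antigen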
Chain of Large T antigen (P03070 whole entry): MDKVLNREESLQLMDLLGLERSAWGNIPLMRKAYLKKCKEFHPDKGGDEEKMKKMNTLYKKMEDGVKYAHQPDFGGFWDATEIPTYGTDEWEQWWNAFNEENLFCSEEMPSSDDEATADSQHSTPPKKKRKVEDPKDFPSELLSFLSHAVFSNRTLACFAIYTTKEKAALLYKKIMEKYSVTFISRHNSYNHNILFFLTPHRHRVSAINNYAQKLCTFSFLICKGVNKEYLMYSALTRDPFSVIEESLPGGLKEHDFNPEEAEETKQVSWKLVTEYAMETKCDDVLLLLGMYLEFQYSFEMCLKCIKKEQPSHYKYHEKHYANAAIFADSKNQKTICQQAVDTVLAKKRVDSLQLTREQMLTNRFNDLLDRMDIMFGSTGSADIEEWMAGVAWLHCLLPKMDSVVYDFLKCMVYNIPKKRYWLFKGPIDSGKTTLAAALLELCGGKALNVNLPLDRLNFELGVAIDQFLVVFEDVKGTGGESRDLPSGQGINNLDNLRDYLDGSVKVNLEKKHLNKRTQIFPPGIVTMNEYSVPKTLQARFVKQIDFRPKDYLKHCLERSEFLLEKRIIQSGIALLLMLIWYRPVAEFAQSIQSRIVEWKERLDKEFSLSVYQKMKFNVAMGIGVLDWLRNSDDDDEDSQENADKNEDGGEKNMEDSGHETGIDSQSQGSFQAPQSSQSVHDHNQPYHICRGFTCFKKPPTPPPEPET

[9] = biological target: T1, X-box-binding protein 1 (Homo sapiens, UniProt P17861); format: functional, Cricetulus griseus;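 also: confirmatory dose-response counter-screen serving a CHOP assay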
T1 sequence (P17861 whole entry): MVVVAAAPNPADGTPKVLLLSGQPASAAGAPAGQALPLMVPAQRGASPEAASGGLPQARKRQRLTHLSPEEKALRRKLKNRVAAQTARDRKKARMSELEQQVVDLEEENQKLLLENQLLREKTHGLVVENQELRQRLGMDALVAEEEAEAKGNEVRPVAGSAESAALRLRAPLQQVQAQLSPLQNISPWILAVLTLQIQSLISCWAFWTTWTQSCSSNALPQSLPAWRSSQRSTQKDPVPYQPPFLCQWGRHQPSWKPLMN

[10] = viability loss in THP-1 monocytes – THP-1 cells, cytotoxicity control for Vif-APOBEC3G degradation inhibitor project, dose response (AID 1117359); format: functional; settings: THP-1
[11] = biological target: Heat shock protein HSP 90-alpha (Homo sapiens, UniProt P07900); format: functional, organism-based
[12] = DRD fibroblast viability loss – cell-based, non-viral oncogenic, luminescence, dose response (AID 1934); format: functional; settings: Homo sapiens
[13] = test system: BJ; test: cells; format: functional, cell-based; settings: Homo sapiens
[14] = biological target: T2, Lysine-specific demethylase 4C (Homo sapiens, UniProt Q9H3R0); test: inhibition of JMJD2C H3K9me3 demethylation – biochemical, DELFIA europium, cherry-picked samples, dose response (AID 488835); format: functional
T2 sequence (Q9H3R0 whole entry): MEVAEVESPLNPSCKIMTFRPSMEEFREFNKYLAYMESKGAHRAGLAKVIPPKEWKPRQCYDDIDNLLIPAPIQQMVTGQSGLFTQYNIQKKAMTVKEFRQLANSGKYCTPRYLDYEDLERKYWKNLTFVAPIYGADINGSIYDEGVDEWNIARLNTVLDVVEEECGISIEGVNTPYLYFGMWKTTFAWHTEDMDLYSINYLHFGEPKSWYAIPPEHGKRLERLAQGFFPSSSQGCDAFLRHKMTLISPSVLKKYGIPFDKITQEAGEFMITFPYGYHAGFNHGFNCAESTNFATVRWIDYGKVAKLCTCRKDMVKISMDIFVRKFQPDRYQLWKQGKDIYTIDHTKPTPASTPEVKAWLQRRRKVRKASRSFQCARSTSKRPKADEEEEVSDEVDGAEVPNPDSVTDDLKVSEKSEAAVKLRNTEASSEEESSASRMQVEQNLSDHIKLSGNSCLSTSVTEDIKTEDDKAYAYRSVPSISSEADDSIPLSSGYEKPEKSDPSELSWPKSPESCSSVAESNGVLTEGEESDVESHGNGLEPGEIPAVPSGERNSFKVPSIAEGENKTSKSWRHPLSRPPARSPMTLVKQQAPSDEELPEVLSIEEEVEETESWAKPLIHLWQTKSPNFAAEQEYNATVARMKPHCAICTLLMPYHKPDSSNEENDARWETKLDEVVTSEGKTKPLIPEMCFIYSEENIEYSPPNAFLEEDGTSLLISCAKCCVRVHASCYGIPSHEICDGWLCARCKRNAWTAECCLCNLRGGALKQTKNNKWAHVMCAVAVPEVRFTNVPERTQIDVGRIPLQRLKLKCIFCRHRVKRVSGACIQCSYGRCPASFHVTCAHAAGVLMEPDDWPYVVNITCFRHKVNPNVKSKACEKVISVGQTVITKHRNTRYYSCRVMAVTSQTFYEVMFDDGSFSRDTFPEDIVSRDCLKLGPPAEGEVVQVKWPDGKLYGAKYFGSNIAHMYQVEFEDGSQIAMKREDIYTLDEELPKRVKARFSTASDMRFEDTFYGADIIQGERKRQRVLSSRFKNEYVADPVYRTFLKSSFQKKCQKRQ

SMILES	IC50 [1]	EC50 [2]	EC50 [3]	EC50 [4]	EC50 [5]	Absolute IC50 (CHOP) [6] [µM]	IC50 [7]	IC50 [8]	Absolute IC50 (XBP1) [9] [µM]	CC50 [10]	AC50 [11]	EC50 [12]	EC50 [13]	AC50 [14]
O=[N+]([O-])c1ccc(Sc2nc3ccccc3o2)c([N+](=O)[O-])c1	1.92 µM (active)	5.82 µM (inconclusive)	6.88 µM (active)	3.27 µM (active)	5.55 µM (active)	10	10.1 µM (active)	84.9 µM (active)	10	2.46 µM (active)	2.22 µM (active)	4.54 µM (inconclusive)	8.14 µM (active)	–
O=C1c2ccccc2C(=O)C12OC2c1cccc2ccccc12 (centres undefined)	–	–	–	–	–	–	–	–	–	–	–	–	–	6.61 µM (active)
